{
  "source": "paper PMC3953223",
  "about": "(Biochemistry, 2013)",
  "key": {"PfENR": {"biological_target": "PfENR", "settings": "cited from earlier work"}, "TgENR": {"biological_target": "T1, TgENR (Toxoplasma gondii, UniProt Q6UCJ9)", "T1 sequence (Q6UCJ9 103-417 limits assumed)": "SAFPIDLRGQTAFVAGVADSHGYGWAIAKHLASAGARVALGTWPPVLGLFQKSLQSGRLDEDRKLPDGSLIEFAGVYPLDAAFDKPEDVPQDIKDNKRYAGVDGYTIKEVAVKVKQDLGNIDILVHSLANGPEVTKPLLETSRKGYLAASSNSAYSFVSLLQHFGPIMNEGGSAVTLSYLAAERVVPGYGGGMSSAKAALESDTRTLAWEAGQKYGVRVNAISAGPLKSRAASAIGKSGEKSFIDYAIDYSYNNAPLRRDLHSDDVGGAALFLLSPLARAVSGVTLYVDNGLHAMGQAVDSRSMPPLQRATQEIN", "assay": "Thermal shift assay, ligand binding to TgENR alone", "settings": "read-out: Kd of NAD^+ binding to TgENR; TSA, binary complex"}, "T. gondii parasites": {"system": "T. gondii parasites", "settings": "read-out: IC50, growth of T. gondii parasites; cited from earlier work"}, "[1]": {"system": "T. gondii tachyzoites (RH-YFP)", "format": "cell-based, Toxoplasma gondii", "settings": "72 h"}},
  "data": [
    {"compound": "NC(=O)C1=CN([C@@H]2O[C@H](COP(=O)(O)OP(=O)(O)OC[C@H]3O[C@@H](n4cnc5c(N)ncnc54)[C@H](O)[C@@H]3O)[C@@H](O)[C@H]2O)C=CC1", "note": "[NADH, nicotinamide adenine dinucleotide]", "values": [
      {"measurement": "Kd", "setting": "PfENR; read-out: Kd for NADH, PfENR", "result": 51.6, "unit": "µM"}
    ]},
    {"compound": "NC(=O)c1ccc[n+]([C@@H]2O[C@H](COP(=O)([O-])OP(=O)(O)OC[C@H]3O[C@@H](n4cnc5c(N)ncnc54)[C@H](O)[C@@H]3O)[C@@H](O)[C@H]2O)c1", "note": "[NAD^+]", "values": [
      {"measurement": "Kd", "setting": "TgENR", "result": 6000, "unit": "µM"}
    ]},
    {"compound": "Oc1cc(Cl)ccc1Oc1ccc(Cl)cc1Cl", "note": "[Triclosan, triclosan]", "values": [
      {"measurement": "IC50", "setting": "T. gondii parasites", "result": "~0.2", "unit": "µM"},
      {"measurement": "forward rate constant of tight binding complex formation", "setting": "PfENR; PfENR", "result": 0.055, "unit": "s⁻¹"},
      {"measurement": "T. gondii MIC50", "setting": "[1]; RH-YFP tachyzoites in HFF, ± SEM", "result": "2.8 ± 0.2", "unit": "µM"},
      {"measurement": "MIC50", "setting": "[1]; Toxoplasma gondii, read-out: T. gondii MIC50", "result": 2.8, "unit": "µM"}
    ]}
  ]
}
